Test results taken from patent US20200037600A1, “MESOIONIC IMIDAZOPYRIDINES AS INSECTICIDES” (Bayer Aktiengesellschaft, priority 2017, published 2020).

Key:
Ctenocephalides felis [1] = assay: Ctenocephalides felis in vitro contact test with adult cat fleas; format: in vivo; conditions: application rate 5 μg/cm^2 (=500 g/ha), after 48 h
Experimental: Ctenocephalides felis—In Vitro Contact Tests with Adult Cat Fleas
(§1) For the coating of the test tubes, 9 mg of active compound are first dissolved in 1 ml of acetone p.a. and then diluted to the desired concentration with acetone p.a. 250 μl of the solution are distributed homogeneously on the inner walls and the base of a 25 ml glass tube by turning and rocking on an orbital shaker (rocking rotation at 30 rpm for 2 h). With 900 ppm of active compound solution and internal surface area 44.7 cm^2, given homogeneous distribution, an area-based dose of 5 μg/cm^2 is achieved.
After the solvent has evaporated off, the tubes are populated with 5-10 adult cat fleas (Ctenocephalides felis), sealed with a perforated plastic lid and incubated in a horizontal position at room temperature and ambient humidity. After 48 h, efficacy is determined. To this end, the tubes are stood upright and the fleas are knocked to the base of the tube. Fleas which remain motionless at the base or move in an uncoordinated manner are considered to be dead or moribund.
100% efficacy means that all the fleas were dead or moribund. 0% efficacy means that no fleas were harmed.

Diabrotica balteata = Diabrotica balteata spray test; format: in vivo; conditions: application rate 160 μg/well, beetle larvae on germinated wheat grains, after 7 days
Nezara viridula = Nezara viridula spray test; format: in vivo; conditions: application rate 500 g/ha; larvae on barley plants; after 4 days
Experimental: Nezara viridula—Spray Test
(§2) Solvent: 78.0 parts by weight of acetone • • 1.5 parts by weight of dimethylformamide
(§3) Emulsifier: alkylaryl polyglycol ether
(§4) To produce a suitable active compound formulation, 1 part by weight of active compound is dissolved with the specified parts by weight of solvent and made up to the desired concentration with water containing an emulsifier concentration of 1000 ppm. To produce further test concentrations, the formulation is diluted with emulsifier-containing water.
Barley plants (Hordeum vulgare) infected with larvae of the Southern green shield bug (Nezara viridula) are srayed with an active compound formulation of the desired concentration.
After 4 days, the efficacy in % is determined. 100% means that all of the shield bugs have been killed; 0% means that none of the shield bugs have been killed.

Myzus persicae [2] = assay: Myzus persicae oral test; format: in vivo; conditions: after 5 days
Procedure, shortened: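 Aphids fed through parafilm on compound formulation (acetone, diluted with water) mixed 50:150 μL with IPL41 insect medium (33%+15% sugar), using a mixed population. Efficacy was recorded after 5 days as % mortality (100% = all aphids killed).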

Myzus persicae [3] = assay: Myzus persicae spray test; format: in vivo; conditions: application rate 500 g/ha, Chinese cabbage leaf discs, after 5 days
Nilaparvata lugens = Nilaparvata lugens test; format: in vivo; conditions: application rate 500 g/ha; rice plants; after 4 days
Experimental: as §2, §3, §4
Rice plants (Oryza sativa) are sprayed with the active compound formulation of the desired concentration and then infected with the brown planthopper (Nilaparvata lugens).
After 4 days, the efficacy in % is determined. 100% means that all of the planthoppers have been killed; 0% means that none of the planthoppers have been killed.

Phaedon cochleariae = Phaedon cochleariae spray test; format: in vivo; conditions: foliar, 168 h, application rate 500 g/ha, larvae on Chinese cabbage leaf discs, after 7 days, read-out: efficacy
Experimental: Phaedon cochleariae—Spray Test
as §2, §3, §4
Discs of Chinese cabbage leaves (Brassica pekinensis) are sprayed with an active compound formulation of the desired concentration and, after drying, populated with larvae of the mustard beetle (Phaedon cochleariae).
After 7 days, the efficacy in % is determined. 100% means that all the beetle larvae have been killed; 0% means that no beetle larvae have been killed.

Spodoptera frugiperda = Spodoptera frugiperda spray test; format: in vivo; conditions: application rate 500 g/ha; caterpillars on maize leaf discs; after 7 days
Experimental: Spodoptera frugiperda—Spray Test
as §2, §3, §4
Leaf discs of maize (Zea mays) are sprayed with an active compound formulation of the desired concentration and, after drying, populated with caterpillars of the fall armyworm (Spodoptera frugiperda).
After 7 days, the efficacy in % is determined. 100% means that all the caterpillars have been killed; 0% means that no caterpillar has been killed.

Rhipicephalus sanguineus = Rhipicephalus sanguineus in vitro contact test with adults of the brown dog tick; format: in vivo; conditions: application rate 5 μg/cm^2 (=500 g/ha), adult dog ticks, after 48 h
Experimental: Rhipicephalus sanguineus—In Vitro Contact Tests with Adults of the Brown Dog Tick
as §1
After the solvent has evaporated off, the tubes are populated with 5-10 adult dog ticks (Rhipicephalus sanguineus), sealed with a perforated plastic lid and incubated in the dark in a horizontal position at room temperature and ambient humidity. After 48 h, efficacy is determined. To this end, the ticks are knocked to the base of the tube and, incubated on a heating plate at 45-50° C. for a maximum of 5 minutes. Ticks which remain motionless at the base or move in such an uncoordinated manner that they cannot purposely escape the heat by climbing upward are considered to be dead or moribund.
100% efficacy means that all the ticks were dead or moribund. 0% efficacy means that no ticks were harmed.

Lucilia cuprina = Lucilia cuprina test; format: in vivo; conditions: application rate 100 ppm; L1 larvae; after 2 days
Experimental: (§5) Solvent: dimethyl sulfoxide
(§6) To produce a suitable active compound formulation, 10 mg of active compound are mixed with 0.5 ml of dimethyl sulfoxide, and the concentrate is diluted with water to the desired concentration.
About 20 L1 larvae of the Australian sheep blowfly (Lucilia cuprina) are transferred into a test vessel containing minced horsemeat and the active compound formulation of the desired concentration.
After 2 days, the kill in % is determined. 100% means that all the larvae have been killed; 0% means that no larvae have been killed.

Ctenocephalides felis [4] = assay: Ctenocephalides felis oral test; format: in vivo; conditions: application rate 100 ppm in citrated cattle blood; adult cat fleas; after 2 days
Experimental: Ctenocephalides felis—Oral Test
as §5
To produce a suitable active compound formulation, 10 mg of active compound are mixed with 0.5 ml of dimethyl sulfoxide. Dilution with citrated cattle blood gives the desired concentration.
About 20 unfed adult cat fleas (Ctenocephalides felis) are placed into a chamber which is closed at the top and bottom with gauze. A metal cylinder whose bottom end is closed with parafilm is placed onto the chamber. The cylinder contains the blood/active compound formulation, which can be imbibed by the fleas through the parafilm membrane.
After 2 days, the kill in % is determined. 100% means that all of the fleas have been killed; 0% means that none of the fleas have been killed.

[5] = log P by HPLC (EEC directive 79/831 Annex V.A8); format: physicochemical
Experimental: The log P values reported in the tables and preparation examples above were determined in accordance with EEC directive 79/831 Annex V.A8 by HPLC (High Performance Liquid Chromatography) using a reversed-phase column (C18). Temperature 43° C. The calibration is effected with unbranched alkan-2-ones (having 3 to 16 carbon atoms), for which the log P values are known.

Musca domestica = Musca domestica test; format: in vivo; conditions: application rate 100 ppm; adult houseflies; after 2 days
Experimental: as §5, §6
Vessels containing a sponge treated with sugar solution and the active compound formulation of the desired concentration are populated with 10 adult houseflies (Musca domestica).
After 2 days, the kill in % is determined. 100% means that all of the flies have been killed; 0% means that none of the flies have been killed.

Structure (SMILES) | efficacy (Ctenocephalides felis [1]) | efficacy (Diabrotica balteata) | efficacy (Nezara viridula) | efficacy (Myzus persicae [2]; application rate 4 ppm) | efficacy (Myzus persicae [2]; application rate 20 ppm) | efficacy (Myzus persicae [3]) | efficacy (Nilaparvata lugens) | pest or weed control at 500 g/ha (Phaedon cochleariae) | efficacy (Spodoptera frugiperda) | pest or weed control at 160 µg/disc, 160 µg/well (Diabrotica balteata; Diabrotica balteata, 168 h, read-out: efficacy) | efficacy (Rhipicephalus sanguineus) | pest or weed control at 4 ppm (Myzus persicae [2]; Myzus persicae, po, 120 h, application rate 4 ppm, read-out: efficacy) | efficacy (kill in %) (Lucilia cuprina) | efficacy (kill in %) (Ctenocephalides felis [4]) | chromatographic logP [5] | pest or weed control at 500 g/ha (Myzus persicae [3]; Myzus persicae, foliar, 120 h, read-out: efficacy) | efficacy (kill in %) (Musca domestica) | efficacy (Rhipicephalus sanguineus; listed as 1-038)
CC(=O)c1c([O-])[n+]2ccccc2n1Cc1cnc(Cl)s1 [Example I-008] | 100% | 100% | 90% | 100% | 100% | 100% | 100% | – | – | – | – | – | – | – | – | – | – | –
Cc1ccc[n+]2c([O-])c(C(=O)C(F)(F)F)n(Cc3cnc(Cl)s3)c12 [Example I-024, 1-[(2-Chlorothiazol-5-yl)methyl]-8-methyl-2-(2,2,2-trifluoroacetyl)imidazo[1,2-a]pyridin-4-ium-3-olate] | 100% | – | – | – | – | – | – | 100% | 83% | 100% | 100% | 100% | 100% | 90% | 2.07 | 90% | – | –
CC(C)OC(=O)C(=O)c1c([O-])[n+]2ccccc2n1Cc1cnc(Cl)s1 [Example I-038] | – | – | – | 100% | – | 90% | – | – | – | – | 100% | – | 90% | 80% | – | – | 100% | 80%
